Results published in patent US20040110763A1, “Pyrazolopyridine compound and pharmaceutical use thereof” (priority 2000, published 2004).

Columns and labels:
human A1 receptor = molecular target: T1, human A1 receptor (Homo sapiens, UniProt P30542); assay: Adenosine antagonistic activity, radioligand binding, A1 receptor; conditions: [3H]DPCPX 4.5 nM
T1 sequence (P30542 1-326): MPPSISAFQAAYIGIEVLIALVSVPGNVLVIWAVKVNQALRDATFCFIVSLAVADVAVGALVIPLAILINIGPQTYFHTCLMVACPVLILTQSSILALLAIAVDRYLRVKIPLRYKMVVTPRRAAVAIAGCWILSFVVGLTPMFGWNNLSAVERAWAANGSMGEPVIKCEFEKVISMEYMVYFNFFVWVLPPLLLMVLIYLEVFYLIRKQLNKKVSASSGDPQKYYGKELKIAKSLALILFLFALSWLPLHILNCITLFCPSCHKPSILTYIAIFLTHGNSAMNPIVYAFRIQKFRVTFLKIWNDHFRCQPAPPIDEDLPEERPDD
Protocol: (§1) Test 1: Adenosine Antagonistic Activity
(§2) The adenosine antagonistic activity [Ki(nM)] of the test compound was examined by radioligand binding techniques using 8-cyclopentyl-1,3-dipropylxanthine, [dipropyl-2,3-^3H(N)] ([^3H]DPCPX, 4.5 nM) for human A1 receptor and [^3H]CGS 21680 (20 nM) for human A2a receptor.

human A2a receptor = human A2a receptor (Homo sapiens, UniProt P29274); assay: Adenosine antagonistic activity, radioligand binding, A2a receptor; conditions: [3H]CGS 21680 20 nM
human A2a receptor, sequence (P29274 whole entry): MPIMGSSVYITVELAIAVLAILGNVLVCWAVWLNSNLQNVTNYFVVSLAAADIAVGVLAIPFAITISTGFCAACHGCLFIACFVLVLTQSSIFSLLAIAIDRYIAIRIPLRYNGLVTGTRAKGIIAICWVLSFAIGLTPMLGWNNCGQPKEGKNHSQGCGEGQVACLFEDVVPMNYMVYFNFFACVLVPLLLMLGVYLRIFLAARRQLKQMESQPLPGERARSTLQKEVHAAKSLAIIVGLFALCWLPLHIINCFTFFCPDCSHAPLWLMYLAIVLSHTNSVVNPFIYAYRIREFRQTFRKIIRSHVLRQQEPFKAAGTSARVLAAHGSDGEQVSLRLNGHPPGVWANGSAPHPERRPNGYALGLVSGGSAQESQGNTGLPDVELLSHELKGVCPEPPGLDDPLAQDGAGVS
Protocol: as §1, §2

ddY mice = assay: Anticatalepsy activity in mouse (haloperidol-induced catalepsy); format: in vivo; conditions: 3.2 mg/kg orally, ddY mice n=7; haloperidol 0.32 mg/kg i.p. 30 min after compound; measured 30 min after injection, bar test up to 30 sec
Protocol: Test 2: Anticatalepsy Activity in Mouse
The test compound (3.2 mg/kg) was administered orally with ddY mice (n=7). Then, haloperidol (0.32 mg/kg) was injected intraperitoneally 30 min. after the administration of the compound. Thirty min. after the injection, the cataleptic responses of mice were measured. The forelimbs of each mouse were placed on a 3 cm high, 3 mm wide horizontal bar, and the duration of cataleptic posture was measured for up to 30 sec.

| Structure (SMILES) | Ki (human A1 receptor) | Ki (human A2a receptor) | Manifestation rate of catalepsy (number of mouse) (ddY mice) | melting point |
| --- | --- | --- | --- | --- |
| CC(C)n1nc(-c2c(-c3ccccc3)nn3ccc(N4CCN(C)CC4)cc23)ccc1=O [Example 96, 5-(4-methyl-1-piperazinyl)-3-(3-oxo-2-isopropyl-2,3-dihydropyridazin-6-yl)-2-phenylpyrazolo[1,5-a]pyridine] | 0.24 nM | 1.28 nM | 0/7 | 170 to 171 °C |
| CC(C)n1nc(-c2c(-c3ccccc3)nn3ccc(OCCN(C)C)cc23)ccc1=O [Example 4, 5-(2-Dimethylamino)ethoxy-3-(3-oxo-2-isopropyl-2,3-dihydropyridazin-6-yl)-2-phenylpyrazolo[1,5-a]pyridine] | 0.98 nM | 2.35 nM | 0/7 | 138 to 139 °C |
| CC(C)n1nc(-c2c(-c3ccccc3)nn3ccc(Oc4ccccn4)cc23)ccc1=O [Example 31, 5-(2-pyridinyloxy)-3-(3-oxo-2-isopropyl-2,3-dihydropyridazin-6-yl)-2-phenylpyrazolo[1,5-a]pyridine] | 0.42 nM | 1.44 nM | 0/7 | 140.5 to 141.5 °C |
| CC(C)n1nc(-c2c(-c3ccccc3)nn3ccc(C(=O)N(C)C)cc23)ccc1=O [Example 72, N,N-dimethyl-3-(3-oxo-2-isopropyl-2,3-dihydropyridazin-6-yl)-2-phenylpyrazolo[1,5-a]pyridine-5-carboxamide] | 0.25 nM | 1.68 nM | 0/7 | – |
| CC(C)n1nc(-c2c(-c3ccccc3)nn3ccc(NC(=O)OC(C)(C)C)cc23)ccc1=O [Example 145, tert-butyl 3-(3-oxo-2-isopropyl-2,3-dihydropyridazin-6-yl)-2-phenylpyrazolo[1,5-a]pyridin-5-ylcarbamate] | 0.48 nM | 1.03 nM | 0/7 | 208 to 210 °C |
| CC(C)n1nc(-c2c(-c3ccccc3)nn3ccc(O)cc23)ccc1=O [Example 3, 5-Hydroxy-3-(3-oxo-2-isopropyl-2,3-dihydropyridazin-6-yl)-2-phenylpyrazolo[1,5-a]pyridine] | 0.14 nM | 1.05 nM | – | > 250 °C |
| COc1ccn2nc(-c3ccccc3)c(-c3ccc(=O)n(C(C)C)n3)c2c1 [Example 2, 5-Methoxy-3-(3-oxo-2-isopropyl-2,3-dihydropyridazin-6-yl)-2-phenylpyrazolo[1,5-a]pyridine] | 0.15 nM | 1.38 nM | 0/7 | 180.5 to 181.5 °C |
